Test results taken from patent US20240285727A1, “NOVEL THERAPEUTIC PEPTIDES FOR NEURODEGENERATION” (UNIVERSITY OF SOUTHERN CALIFORNIA, priority 2021, published 2024).
One block for each molecule: values may come before it. Ends that are not written are not given here.

What was measured:
mitofilin = target: T1, mitofilin (Homo sapiens, UniProt Q16891); test: SHMOOSE-mitofilin protein interaction (co-immunoprecipitation, reciprocal dot blot); type: binding; conditions: reciprocal dot-based immunoblots, recombinant proteins
T1 construct: purchased OriGene
T1 sequence (Q16891 34-758): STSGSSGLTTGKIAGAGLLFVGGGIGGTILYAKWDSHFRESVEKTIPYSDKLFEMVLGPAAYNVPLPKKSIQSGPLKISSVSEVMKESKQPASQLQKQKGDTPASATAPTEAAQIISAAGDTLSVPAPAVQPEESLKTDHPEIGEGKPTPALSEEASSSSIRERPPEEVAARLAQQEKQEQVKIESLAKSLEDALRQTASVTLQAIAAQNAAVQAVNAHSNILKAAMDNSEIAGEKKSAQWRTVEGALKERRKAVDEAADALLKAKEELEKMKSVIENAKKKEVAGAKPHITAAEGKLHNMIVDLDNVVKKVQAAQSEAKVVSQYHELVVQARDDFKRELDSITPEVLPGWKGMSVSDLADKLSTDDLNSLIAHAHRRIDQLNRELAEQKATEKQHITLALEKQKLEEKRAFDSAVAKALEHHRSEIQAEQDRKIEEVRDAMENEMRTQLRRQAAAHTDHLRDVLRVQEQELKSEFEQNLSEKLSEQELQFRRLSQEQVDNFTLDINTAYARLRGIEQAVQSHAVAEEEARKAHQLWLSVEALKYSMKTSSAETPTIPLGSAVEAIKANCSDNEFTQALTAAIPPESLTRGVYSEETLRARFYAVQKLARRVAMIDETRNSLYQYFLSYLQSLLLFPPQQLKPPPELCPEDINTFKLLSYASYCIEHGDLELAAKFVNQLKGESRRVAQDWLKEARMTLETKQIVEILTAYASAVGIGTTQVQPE
Protocol: To identify the SHMOOSE interactome, multiple experiments were conducted. First, 1.5 nmol of SHMOOSE was spiked into 1 mg SH-SY5Y cell lysate for 6 hours at 4° C. Lysates were prepared using Thermo Pierce CoIP lysis buffer with 1× Thermo protease inhibitor cocktail and 1 mM PMSF. Briefly, cells were washed with ice-cold DPBS twice, lysed for 15 minutes on ice, and centrifuged for 10 minutes at 12,000 RCF at 4° C. The rationale for conducting this experiment was to ensure identical protein amounts between conditions and avoid differential protein expression caused by SHMOOSE treatment to cells. After 6 hours, SHMOOSE was immunoprecipitated from samples using Dynabeads A conjugated to 5 ug of custom c-terminus SHMOOSE antibody. As a negative control, SHMOOSE-spiked lysates were also immunoprecipitated using 5 ug rabbit IgG. Proteins were eluted from beads using 50 mM Glycine pH 2.8, and eluents were pH neutralized using Tris HCl pH 7.5. Complete eluents were then processed for protein identification using LC-MS. […] Statistical analysis of MaxQuant label-free quantitation data was performed with the artMS Bioconductor package, which performs the relative quantification of protein abundance using the MSstats Bioconductor package (default parameters). […]

SH-SY5Y cells [1] = test: Amyloid beta toxicity assay (LIVE/DEAD viability); type: cell-based; conditions: neuronal cells stressed with oligomerized amyloid beta 42 (1 uM); 10 uM peptide
Protocol: SH-SY5Y cells were differentiated for 4 days, incubated with 10 uM SHMOOSE or SHMOOSE.D47N for 24 hours followed by another incubation with SHMOOSE or SHMOOSE.D47N with or without oligomerized 1 uM amyloid beta 42 (CPC Scientific), prepared as formerly described. A two-color fluorescence cell viability assay (LIVE/DEAD Viability/Cytotoxicity Kit; Invitrogen (cat. L3224) was used to distinguish live cells from dead cells after […] and amyloid beta 42 treatment. The ratio of live to dead cells can be quantified since live cells retain the Calcein AM dye and dead cells with damaged membranes permit entry of the ethidium homodimer dye.

SH-SY5Y cells [2] = test: Seahorse assay (oxygen consumption rate); type: cell-based
Protocol: SH-SY5Y Cells were Plated into 96-Well Plates at a Density of 10,000 Cells. The following day, cells were differentiated for a total of 4 days. Thereafter, SHMOOSE or SHMOOSE.D47N were incubated for 24 hours, followed by cell real-time oxygen consumption rates measurements using XF96 Extracellular Flux Analyzer (Seahorse Bioscience). ATP turnover and maximum respiratory capacity were calculated after challenging cells with oligomycin and FCCP (carbonyl cyanide 4-[trifluoromethoxy]phenylhydrazone). Additionally, glycolytic rate was determined using extracellular acidification rate (ECAR) and individually reported relative to basal level in percentage. All readings were normalized to total DNA content using Hoechst 33342.

[3] = SHMOOSE pharmacokinetics after intraperitoneal injection; type: in vivo, mouse; conditions: IP injected mice
Protocol: SHMOOSE pharmacokinetics was studied, where 2.5 mg SHMOOSE/kg in 25-week old C57/BI6 mice were intraperitoneally injected.

[4] = test system: C57BL/6J mice fed a high fat diet; test: SHMOOSE in vivo: daily IP injections to mice fed a high fat diet, two weeks; parameters: species or system mouse
From the text: The inventors also injected SHMOOSE intraperitoneally (IP) to 12-week-old C57BL/6J mice fed a high fat diet (i.e., a mild metabolic perturbation). At the conclusion of the two-week study, the inventors harvested brain and liver for RNA-Seq. As the inventors observed for SHMOOSE.D47N carriers and in in vitro experiments, 367 differentially expressed genes under a p adjusted value of 0.05 enriched mitochondrial and ribosomal terms in the liver (FIG. 3C). That is, liver expression differences were observed after SHMOOSE IP injections. Brain hypothalamus expression differences were also observed after SHMOOSE IP injections. Further, cortical expression differences were observed after SHMOOSE IP injections. However, while the inventors observed global gene expression changes as illustrated by PCA in the mouse cortex and hypothalamus, most enriched terms included central nervous system-related terms, not ribosomes nor mitochondrial specifics (FIG. 17). Furthermore, brain hippocampus expression differences were observed after SHMOOSE IP injections.
To examine the transcriptomes of mice treated with SHMOOSE, 12-week-old male […] mice were obtained from The Jackson Laboratory. Mice were fed a high fat diet for 10 days (60% total calories) prior to initiation of SHMOOSE daily IP injections (2.5 mg/kg). No more than 60 ul of volume were injected IP. […]

SHSY5Y = test: Analogue screening assay, measured by MTT; type: cell-based; conditions: as a percentage compared to SHMOOSE (SHMOOSE activity as 100%)
From the text: FIG. 10 depicts an analogue screening assay, measured by MTT. Top: each bar represents a fragment (25-amino acid in length) of SHMOOSE. Bottom: each bar represents a phosphomimetic fragment (25-amino acid in length) of SHMOOSE. Cell model is SHSY5Y. The Inventors made 103 analogues/derivatives (see Table 1).
The Inventors made 103 analogues (Table 1). Referring to FIG. 10, in the top figure, each bar represents a 25-amino acid fragment of the SHMOOSE peptide. […] The sequence length of the analogue is 14 amino acids and 3 different analysis windows of the analogue, each having 11 amino acids, were characterized. […]

[5] = target: the molecule itself; test: Western blot of subcellular fractions of SHMOOSE-treated SH-SY5Y cells (FIG. 4A)
Protocol: Cytosolic, nuclear, and mitochondrial fractions were prepared from cultured SH-SY5Y cells. To extract nuclei, cells were washed in ice-cold DPBS and resuspended in fractionation buffer containing 10 mM HEPES pH 7.6, 3 mM MgCl2, 10 mM KCl, 5% (v/v) glycerol, 1% Triton-X100, and protease/phosphatase inhibitors for 15 minutes, followed by centrifugation for 5 minutes at 250×g and 4° C. The resulting supernatant was further centrifuged once more at 18,000×g for 10 minutes at 4° C. to obtain a relatively pure cytoplasmic fraction. The original pellet prior to the 18,000×g centrifugation was washed in 10 mM HEPES pH 7.6, 1.5 mM MgCl2, 10 mM KCl, and protease/phosphatase inhibitors and centrifuged at 250×g and 4° C. The washed pellet was then resuspended in nuclear extraction buffer containing 20 mM HEPES pH 7.6, 1.5 mM MgCl2, 420 mM NaCl, 25% (v/v) glycerol, 0.2 mM EDTA, and protease/phosphatase inhibitors, followed by three sonication periods of 5 seconds (separated by 10 seconds) with 30% amplitude on ice. The sonicated pellet was centrifuged at 18,000×g for 10 minutes at 4° C. to obtain a relatively pure nuclear lysate. To extract mitochondria, cells were washed in ice-cold DPBS and resuspended in 2 ml hypotonic buffer containing 10 mM NaCl, 1.5 mM MgCl2, and 10 mM Tris-HCl pH 7.5 for 7.5 minutes. […]

ATP5A1 = ATP5A1 (UniProt P25705 44-553, limits assumed); test: binding of SHMOOSE to ATP5 subunits (FIG. 9C/9D); method not described
Chain of ATP5A1 (P25705 44-553 limits assumed): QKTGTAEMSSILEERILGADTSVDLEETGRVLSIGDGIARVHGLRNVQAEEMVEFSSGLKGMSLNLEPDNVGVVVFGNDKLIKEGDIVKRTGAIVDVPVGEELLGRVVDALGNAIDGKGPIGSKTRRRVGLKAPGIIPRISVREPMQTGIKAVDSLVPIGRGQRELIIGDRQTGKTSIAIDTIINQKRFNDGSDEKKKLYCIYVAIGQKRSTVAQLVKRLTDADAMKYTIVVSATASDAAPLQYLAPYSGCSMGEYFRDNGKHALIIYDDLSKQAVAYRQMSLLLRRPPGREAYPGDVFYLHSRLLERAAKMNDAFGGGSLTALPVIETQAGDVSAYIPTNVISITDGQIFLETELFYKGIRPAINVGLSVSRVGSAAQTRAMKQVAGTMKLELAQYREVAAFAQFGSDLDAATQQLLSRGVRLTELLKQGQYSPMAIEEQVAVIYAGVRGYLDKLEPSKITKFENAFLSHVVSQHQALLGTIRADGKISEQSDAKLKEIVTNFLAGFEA

binding to mitofilin (mitofilin): confirming binding
Molecule: MPPCLTTWLSQLLKDNSYPLVLGPKNFGATPNKSNNHAHYYNHPNPNFPNSPHPYHPR [SHMOOSE.D47N]
protection against cell death (SH-SY5Y cells [1]): did not similarly protect cells
basal cell oxygen consumption rate (in words) (SH-SY5Y cells [2]): but not mutant SHMOOSE.D47N, boosts basal cell oxygen consumption rate
mitochondrial spare capacity (SH-SY5Y cells [2]; after oligomycin and FCCP, 24 hours incubation): boosted mitochondrial spare capacity

Molecule: MPPCLTTWLSQLLKDNSYPLVLGPKNFGATPNKSNNHAHYYNHPNPDFPNSPHPYHPR [SHMOOSE]
entry into circulation [3]: goes into the blood stream
half-life [3]: strong half-life
toxic effects and behavior changes [4]: did not display toxic effects nor behavior changes

Molecule: 72 (NFGADPNKDNNHAHDDNHPNPDFPN) [compound 72]
% Efficacy (SHSY5Y): −28.57%

binding result (ATP5A1): no binding
B1: SHMOOSE (Small Human Mitochondrial Open reading frame Over the SErine-tRNA) peptide (peptide)
peptide: MPPCLTTWLSQLLKDNSYPLVLGPKNFGATPNKSNNHAHYYNHPNPDFPNSPHPYHPR
notes: Endogenous SHMOOSE in Western blots is treated as the same molecule; also called wild type SHMOOSE; synthetic SHMOOSE
binding result [5]: binds
